Consider 32 compounds from PubChem BioAssay AID686957 (The Scripps Research Institute Molecular Screening Center, 2013).

The assay addresses T-cell receptor (TCR)-CD3 interaction, human (TCR alpha chain TRAV4). Put plainly: IC50 for blocking TCR-CD3 binding – biochemical, fluorescence, TAMRA-labeled TCR probe, dose response (AID 686957).

Calls of active or inactive are those of the source. How the calls were made is not given here. Some results are limits rather than exact numbers.

As usually defined, the IC50 is the concentration needed to halve the response being measured. Consider `CN=c1scc(C)n1/N=C/c1ccc(O)c(O)c1O`, for which the IC50 entry was “inactive”.

For `O=C(O)c1ccccc1/C=N/NC(=O)c1cc(-c2ccco2)nc2ccccc12`, the IC50 was > 94.1 µM (inactive).

As to `CC(C)(C)c1ccc(C(=O)NCC(=O)NNC(=O)c2ccccc2O)cc1`, the IC50 is > 94.1 µM (inactive).

As for `O=C(CNC(=O)c1ccccc1Br)N/N=C\c1cc([N+](=O)[O-])cc(Br)c1O`, the IC50 was > 94.1 µM (inactive).

As for `CC(=O)NC(CC(=O)NNC(=O)c1cc2ccccc2cc1O)c1ccccc1` (configuration not stated), the IC50 is > 94.1 µM (inactive).

Consider `O=C(NNC(=O)C1CCN(S(=O)(=O)c2ccccc2C(F)(F)F)CC1)c1ccccc1O`, for which the IC50 is > 94.1 µM (inactive).

Take `O=c1c2ccccc2c(C=Nc2ccccc2O)c(O)n1-c1nccs1`: the IC50 was > 94.1 µM (inactive).

`Cc1nc2ccccc2c(=O)n1/N=C/c1cc(Br)cc(Br)c1O`: the IC50 is > 94.1 µM (inactive).

`CC1=NN(C(=O)c2ccccc2)C(O)(c2ccc(Br)cc2)C1` (configuration not stated): the IC50 is > 94.2 µM (inactive).

As to `O=C(N/N=C/c1cc(Br)cc(Br)c1O)c1cccc(N2CCCC2=O)c1`, the IC50 was > 94.1 µM (inactive).

As for `CC1(C)CC2CC(C)(CN2S(=O)(=O)c2ccc(C(=O)Nc3cccc(S(=O)(=O)N4CCOCC4)c3)cc2)C1` (configuration not stated), the IC50 entry is “inactive”.

Consider `O=c1oc2ccccc2c2oc3cc(O)c(O)cc3c12`, for which the IC50 was > 94.2 µM (inactive).

On to `CNC(=S)NNC(=O)c1cccn(Cc2ccccc2)c1=O`, for which the IC50 was > 94.2 µM (inactive).

`Cc1ccc(-c2[nH]c3cc(C(=O)NCCCn4ccnc4)ccc3c(=O)c2O)cc1`: the IC50 entry was “inactive”.

Regarding `COc1cc(/C=N/NC(=O)COc2ccc(Cl)cc2)ccc1OS(=O)(=O)c1ccc(C)cc1`, the IC50 entry is “inactive”.

For `COC(=O)Nc1ccc(S(=O)(=O)NNC(=O)c2c(O)c3ccccc3[nH]c2=O)cc1`, the IC50 is > 94.1 µM (inactive).

In the case of `CN(C(=O)COC(=O)c1cc(-c2ccco2)nc2ccccc12)C1CCS(=O)(=O)C1` (configuration not stated), the IC50 entry is “inactive”.

Take `O=C(CP(=O)(c1ccccc1)c1ccccc1)N/N=C/c1cc(Br)cc(Br)c1O`: the IC50 is > 94.2 µM (inactive).

In the case of `O=C(N/N=C/c1cccc([N+](=O)[O-])c1O)c1cccs1`, the IC50 was > 94.1 µM (inactive).

Turning to `Oc1ccc(C[C@H]2NCCc3cc(O)c(O)cc32)cc1O`, the IC50 was > 94.1 µM (inactive).

Consider `Cc1ccn2cc(-c3ccc(O)c(O)c3)nc2c1`, for which the IC50 was > 94.1 µM (inactive).

As to `O=C(N/N=C/c1cc([N+](=O)[O-])ccc1O)/C(=C\c1cccs1)NC(=O)c1ccccc1`, the IC50 is > 94.1 µM (inactive).

`O=C(N/N=C/c1ccoc1)c1cc(O)cc(O)c1`: the IC50 was > 94 µM (inactive).

In the case of `O=C(N/N=C/c1cc(Cl)cc([N+](=O)[O-])c1O)c1ccc2c(c1)OCO2`, the IC50 was > 94.1 µM (inactive).

In the case of `c1coc(-c2ccc3nncn3c2)c1`, the IC50 result is “inactive”.

Turning to `Oc1ccc(-c2cn3c(n2)SCC3)cc1O`, the IC50 entry is “inactive”.

`O=c1c(CO)cc(CO)cc(CO)c1O`: the IC50 result was “inactive”.

As for `Cc1nc(S/C(=C/c2ccc(OCc3ccc(C(=O)O)cc3)cc2)C(=O)O)n[nH]1`, the IC50 is > 94.1 µM (inactive).

`O=C1Nc2ccccc2/C1=N\N=C\c1ccc(O)c(O)c1`: the IC50 is > 94.1 µM (inactive).

With `CC1CCN(S(=O)(=O)c2ccc(NC(=O)Cn3nnc(-c4ccccc4F)n3)cc2)CC1`, the IC50 result was “inactive”.

Take `COC(=O)Nc1ccc(S(=O)(=O)NNC(=O)c2c(O)c3ccccc3n(C)c2=O)cc1`: the IC50 is > 94.1 µM (inactive).

For the compound `NS(=O)(=O)c1ccc(NC(=O)c2cccc(N3C(=O)c4ccccc4C3=O)c2)cc1`, the IC50 is > 94.1 µM (inactive).
